{"source": "patent US20090149417A1", "about": "“Methods and compositions for the treatment of cancer using benzopyrone-type PARP inhibitors” (priority 2007, published 2009)", "key": {"[1]": {"tested_on": "Colo375FG metastatic pancreatic adenocarcinoma cells", "test": "Live cell number (Coulter counter, methylene blue, PI exclusion)", "format": "cell-based, human", "experimental": "Colo375FG metastatic pancreatic adenocarcinoma cells are cultured in Dulbecco Modified Eagle Medium with 10% fetal bovine serum. Cells are plated at 10^5 per P100 or at 10^4 per P60 (for assays requiring up to 3 days of culture), in the presence of different concentrations of BiPar compounds and other agents, or DMSO control. Following treatment, the number of attached cells is measured using Coulter counter, and by staining with 1% methylene blue. Methylene blue is dissolved in 50%-50% mixture of Methanol and water. Cells are plated in 24- or 96-well plates and treated with compounds as indicated, then media are aspirated, cells are washed with PBS, fixed in methanol for 5-10 min, washed and the plates are allowed to dry completely. Methylene blue solution is added to wells and plates are incubated for 5 min. Staining solution is removed and plates are washed with dH2O. After plates are completely dry, a small amount of 1N HCl is added to each well to extract the methylene blue. The OD readout at 600 nm and a calibration curve are used to determine cell number.\nIIIg (6-nitro-5-iodo-benzopyrone) is dissolved directly from dry powder to 10 mM stock solution in DMSO for each separate experiment, and then the entire volume of the stock solution is used to prepare working concentrations in cell culture medium to avoid any possibility of precipitation and the corresponding loss of compound. Control experiments are carried out with the matching volume/concentration of the vehicle (DMSO).\nAfter the addition of drugs and incubation, cells are trypsinized and aliquots of the samples are taken for counting and PI (Propidium Iodide) exclusion assay. One part of the cells is centrifuged and resuspended in 0.5 ml ice-cold PBS containing 5 μg/ml of PI. The other part of the cells is fixed in ice-cold 70% ethanol and stored in a freezer overnight. For cell cycle analysis, cells are stained with propidium iodide (PI) by standard procedures. Cellular DNA content is determined by flow cytometry using BD LSRII FACS, and the percentages of cells in G1, S or G2/M are determined using ModFit software.\nColo375FG metastatic pancreatic adenocarcinoma cells are obtained from ATCC and cultured in Dulbecco Modified Eagle Medium with 10% fetal bovine serum. Cells are plated at 10^5 cells per P100 cell culture dish or at 10^4 cells per P60 cell culture dish in the presence of different concentrations compounds or DMSO control. Following treatment, the number of attached cells is measured using Coulter counter, and by staining with 1% methylene blue. Methylene blue is dissolved in 50%-50% mixture of Methanol and water. Cells are plated in 24- or 96-well plates and treated as planned, media are aspirated, cells are washed with PBS, fixed in methanol for 5-10 min, methanol is aspirated and plates are allowed to dry completely. Methylene blue solution is added to wells and plates are incubated for 5 min. Staining solution is removed and plates are washed with dH2O until washes are no longer blue. After plates are completely dry, a small amount of 1N HCl is added to each well to extract the methylene blue. The OD readout at 600 nm and a calibration curve are used to determine cell number.\nCompounds of the invention are dissolved directly from dry powder to 10 mM stock solution in DMSO for each separate experiment. Control experiments are carried out with the matching volume/concentration of the vehicle (DMSO). In these controls, the cells show no changes in their growth or cell cycle distribution.\nAfter the addition of drugs and incubation, cells are trypsinized and aliquots of the samples are taken for counting and PI (Propidium Iodide) exclusion assay. One part of the cells is centrifuged and resuspended in 0.5 ml ice-cold PBS containing 5 ug/ml of PI. The other part of the cells is fixed in ice-cold 70% ethanol and stored in a freezer overnight. For cell cycle analysis, cells are stained with propidium iodide (PI) by standard procedures. […]"}, "[2]": {"tested_on": "Colo375FG metastatic pancreatic adenocarcinoma cells", "test": "Bromodeoxyuridine (BrdU) labeling assay (flow cytometry)", "format": "cell-based, human", "experimental": "50 μl of BrdU (Sigma Chemical Co., St. Louis, Mo.) stock solution (1 mM) is added to give 10 μM BrdU final concentration. The cells are incubated for 30 min at 37° C. and fixed in ice-cold 70% ethanol and stored in a cold room (4° C.) overnight. Fixed cells are centrifuged and washed once in 2 ml PBS, then resuspended in 0.7 ml of denaturation solution (0.2 mg/ml pepsin in 2 N HCl) for 15 min at 37° C. in the dark and suspended with 1.04 ml 1M Tris buffer (Trizma base, Sigma Chemical Co.) to terminate the hydrolysis and washed in 2 ml PBS.\n(§1) Cells are resuspended in 100-μl anti-BrdU antibody (DakoCytomation, Carpinteria, Calif.) with 1:100 dilution in TBFP permeable buffer (0.5% Tween-20, 1% bovine serum albumin and 1% fetal bovine serum in PBS) and incubated for 25 min at room temperature in the dark and washed in 2 ml PBS. The primary antibody-labeled cells are resuspended in 100 μl Alexa Fluor F(ab′)2 fragment of goat anti-mouse IgG (H+L) (2 mg/mL) (Molecular Probes, Eugene, Oreg.) with 1:200 dilution in TBFP permeable buffer and incubated for 25 min at room temperature in the dark and washed in 2 ml PBS, then resuspended in 0.5 ml ice-cold PBS containing 1 μg/ml 4′,6-diamidino-2-phenylindole (DAPI) for at least 30 min. All cell samples are analyzed with a BD LSR II (BD Biosciences, San Jose, Calif.).\nas §1, with “50 μl of BrdU (Sigma Chemical Co., St. Louis, Mo.) stock solution (1 mM) is added to give 10 μM BrdU final concentration. The cells are incubated for 30 min at 37 °C and fixed in ice-cold 70% ethanol and stored in a cold room (4 °C) overnight. Fixed cells are centrifuged and washed once in 2 ml PBS, then resuspended in 0.7 ml of denaturation solution (0.2 mg/ml pepsin in 2 N HCl) for 15 min at 37° C. in the dark and suspended with 1.04 ml 1M Tris buffer (Trizma base, Sigma Chemical Co.) and washed in 2 ml PBS. Then cells” for “Cells”"}, "[3]": {"settings": "Compound IIIc 0 mM, OxaliPt 10 mM"}, "[4]": {"settings": "combination of IIIg and oxaliplatin"}, "[5]": {"settings": "combination: IIIg 2.5 μM + OxaliPt 10 μM"}, "[6]": {"settings": "combination: IIIg 2.5 μM + OxaliPt 20 μM"}, "[7]": {"settings": "combination: IIIg 12.5 μM + OxaliPt 10 μM"}, "[8]": {"settings": "combination: IIIg 12.5 μM + OxaliPt 20 μM"}, "[9]": {"settings": "combination: IIIg 25 μM + OxaliPt 10 μM"}, "[10]": {"settings": "combination: IIIg 25 μM + OxaliPt 20 μM"}}, "note": "“And” between values parts separate entries of the source, which are not always exact repeats. Equal values may be shown once.", "data": [{"smiles": "O=C1[O][Pt]2([NH][C@@H]3CCCC[C@H]3[NH]2)[O]C1=O", "note": "[OxaliPt, oxaliplatin, reference compound]", "values": [{"measurement": "Live Cell (%)", "setting": "[1]; [3]", "result": 54, "unit": "%"}, {"measurement": "Live Cell (%)", "setting": "[1]; Compound IIIc 0 mM, OxaliPt 20 mM", "result": 29, "unit": "%"}, {"measurement": "Live Cell (%)", "setting": "[1]; IIIg 0 μM, OxaliPt 10 μM", "result": 54, "unit": "%"}, {"measurement": "Live Cell (%)", "setting": "[1]; IIIg 0 μM, OxaliPt 20 μM", "result": 29, "unit": "%"}, {"measurement": "Cells in S-phase of cell cycle (% BrdU+)", "setting": "[2]; [3]", "result": 81.74, "unit": "%"}, {"measurement": "S-phase % BrdU+", "setting": "[2]; IIIg 0 μM, OxaliPt 10 μM", "result": 81.74, "unit": "%"}, {"measurement": "S-phase % BrdU+", "setting": "[2]; IIIg 0 μM, OxaliPt 20 μM", "result": 63.12, "unit": "%"}]}, {"smiles": "O=c1ccc2c(I)c([N+](=O)[O-])ccc2o1", "note": "[IIIg, 5-iodo-6-nitro-benzopyrone]", "values": [{"measurement": "Live Cell (%)", "setting": "[1]; IIIg 2.5 μM, OxaliPt 0 μM", "result": "100% and 118%"}, {"measurement": "Percentage of live cells", "setting": "[1]; [4]", "result": "significantly reduces the percentage of live cells"}, {"measurement": "Live Cell (%)", "setting": "[1]; [5]", "result": 62, "unit": "%"}, {"measurement": "Live Cell (%)", "setting": "[1]; [6]", "result": 27, "unit": "%"}, {"measurement": "Live Cell (%)", "setting": "[1]; [7]", "result": 22, "unit": "%"}, {"measurement": "Live Cell (%)", "setting": "[1]; [8]", "result": 13, "unit": "%"}, {"measurement": "Live Cell (%)", "setting": "[1]; [9]", "result": 11, "unit": "%"}, {"measurement": "Live Cell (%)", "setting": "[1]; [10]", "result": 7, "unit": "%"}, {"measurement": "S-phase % BrdU+", "setting": "[2]; IIIg 2.5 μM, OxaliPt 0 μM", "result": 94.89, "unit": "%"}, {"measurement": "S-phase % BrdU+", "setting": "[2]; IIIg 12.5 μM, OxaliPt 0 μM", "result": 93.1, "unit": "%"}, {"measurement": "S-phase % BrdU+", "setting": "[2]; IIIg 25 μM, OxaliPt 0 μM", "result": 75.18, "unit": "%"}, {"measurement": "Proliferation (percentage of BrdU positive cells)", "setting": "[2]; [4]", "result": "inhibits the proliferation"}, {"measurement": "S-phase % BrdU+", "setting": "[2]; [5]", "result": 86.3, "unit": "%"}, {"measurement": "S-phase % BrdU+", "setting": "[2]; [6]", "result": 65.32, "unit": "%"}, {"measurement": "S-phase % BrdU+", "setting": "[2]; [7]", "result": 67.5, "unit": "%"}, {"measurement": "S-phase % BrdU+", "setting": "[2]; [8]", "result": 33, "unit": "%"}, {"measurement": "S-phase % BrdU+", "setting": "[2]; [9]", "result": 24.69, "unit": "%"}, {"measurement": "S-phase % BrdU+", "setting": "[2]; [10]", "result": 33.85, "unit": "%"}]}]}
